Laboratory results reported in paper PMC12655551, “Design, Synthesis, and Evaluation of Pyrrole-Based Selective MAO-B Inhibitors with Additional AChE Inhibitory and Neuroprotective Properties Identified via Virtual Screening” (Pharmaceuticals, 2025).

Key:
[1] = system: isolated rat brain synaptosomes; assay: 6-OHDA-induced neurotoxicity in isolated rat brain synaptosomes; type: cell-based; conditions: 150 μM, vs non-treated synaptosomes
Protocol: (§1) Two types of buffers were used for the isolation of the rat brain synaptosomes and mitochondria. Buffer A was 5 mM HEPES and 0.32 M Sucrose; Buffer B was 290 mM NaCl, 0.95 mM MgCl2 × 2H2O, 10 mM KCl, 2.4 mM CaCl2 × 2H2O, 2.1 mM NaH2PO4, 44 mM HEPES, 13 mM D-Glucose. For the gradient centrifugation, Percoll reagent was used. A stock solution of 90% Percoll was used to prepare 16%, 10% and 7.5% solutions. All the solutions were used as described below. Immediately after harvesting, synaptosomes, microsomes, and mitochondria were incubated with the exam compounds for 1 h. For assessing the possible neurotoxicity of the most MAOB active compounds, the sub-cellular fractions were incubated with 100 µM of them, and for evaluating their possible neuroprotective and antioxidant activities in different models of neurotoxicity, the sub-cellular fractions were incubated with 50µM of them. The protein measurement of all the sub-cellular fractions was made by the method of Lowry et al., 1951 [57].
The synaptosomes were prepared from rat brains by multiple sub-cellular fractionation using a Percoll gradient.
This in vitro model resembles the neurodegenerative processes occurring in PD. Dopamine metabolism and oxidation led to the formation of reactive oxygen species (ROS) and reactive quinones. These processes were catalyzed by the MAOB enzyme. They induced dopamine neurotoxicity and neurodegeneration. The synaptosomes were incubated with 150 μM 6-OHDA for 1 h.
After the incubation, the synaptosomes were centrifuged three times at 15,000× g for 1 min. MTT-test was performed to determine synaptosomal vitality by the method described by Mungarro-Menchaca et al..
The level of GSH was determined by measuring the non-protein SH-groups after precipitation of the proteins with trichloroacetic acid (TCA). The presence of thiols in the supernatant was determined using Elmman’s reagent. The resulting yellow color was measured spectrophotometrically (λ = 412 nm).

[2] = system: isolated rat brain mitochondria; assay: t-BuOOH-induced oxidative stress in isolated rat brain mitochondria; type: cell-based; conditions: 75 μM, vs non-treated mitochondria
Protocol: as §1
The mitochondria were prepared by multiple differential fractionation using a Percoll gradient.
The mitochondria were incubated with 75 μM t-BuOOH [57].
After incubation of the mitochondria, 0.3 mL 0.2% TBA and 0.25 mL sulfuric acid (0.05 M) were added to stop the reaction. The tubes were maintained at 100 °C for 30 min. In the next stage, centrifugation of the tubes was carried out at 3500× g for 10 min. Assessment of the total quantity of MDA formed in each sample was measured in the supernatant at 532 nm.
After incubation of mitochondria, 0.04% DTNB was mixed with the mitochondrial suspensions in 0.1 M phosphate buffer (pH 7.4). The absorbance of the yellow product was measured at 412 nm.

[3] = target: T1, BChE (Equus caballus, UniProt P81908); assay: biochemical; conditions: for IC50: means ± SD of three experiments, read-out: BChE IC50; for inhibition at 200 µM: read-out: Inhibition Activity 200 µM BChE
T1 construct: purchased Sigma-Aldrich, Hamburg, Germany; host or cells: equine serum
T1 sequence (P81908 whole entry): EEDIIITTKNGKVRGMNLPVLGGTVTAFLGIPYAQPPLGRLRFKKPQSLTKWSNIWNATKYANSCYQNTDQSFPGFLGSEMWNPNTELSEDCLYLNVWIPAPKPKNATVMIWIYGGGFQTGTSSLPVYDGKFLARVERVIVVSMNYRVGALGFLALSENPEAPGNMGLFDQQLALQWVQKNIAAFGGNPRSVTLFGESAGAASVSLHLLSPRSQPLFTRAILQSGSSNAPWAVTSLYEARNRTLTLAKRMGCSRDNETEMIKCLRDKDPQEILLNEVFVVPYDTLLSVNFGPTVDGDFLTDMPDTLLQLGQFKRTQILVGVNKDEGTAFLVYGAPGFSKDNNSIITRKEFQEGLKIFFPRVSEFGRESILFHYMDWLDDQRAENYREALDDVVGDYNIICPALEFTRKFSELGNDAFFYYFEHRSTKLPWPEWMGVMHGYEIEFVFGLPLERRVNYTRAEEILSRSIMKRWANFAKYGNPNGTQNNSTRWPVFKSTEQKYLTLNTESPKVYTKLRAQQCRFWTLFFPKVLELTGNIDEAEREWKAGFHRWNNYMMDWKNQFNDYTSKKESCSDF
Protocol: (§2) AChE and BChE inhibitory activity of the newly synthesized pyrrole-based compounds was measured using the microplate assay described by Ellman et al. with the modifications added by López et al.. The compounds were tested at concentrations between 0.01 and 200 μM. First, they were dissolved in phosphate buffer (PBS) (8 mM K2HPO4, 2.3 mM NaH2PO4, 0.15 M NaCl, pH 7.5), assisted by the addition of no more than 5% MeOH. Then, they were serially diluted with PBS to provide the concentration range needed. Acetylcholinesterase from Electrophorus electricus and butyrylcholinesterase from equine serum (Sigma-Aldrich, Hamburg, Germany) were used with a substrate solution of 5,5′-dithiobis(2-nitrobenzoic acid) (DTNB) with acetylthiocholine iodide (ATCI) or butyrylthiocholine iodide (BTCI), respectively (0.04 M Na2HPO4, 0.2 mM DTNB, 0.24 mM ATCI or BTCI, pH 7.5). A total of 50 μL of AChE or BChE (0.25 U/mL, in PBS) and 50 μL of the tested compound solution were added to the wells. Incubation of the plates was performed at room temperature for 30 min. Then, 100 μL of substrate solution was added to start the enzymatic reaction. […] Enzyme activity was calculated as an inhibition percentage compared to an assay including buffer instead of an inhibitor.

[4] = target: T2, AChE (Electrophorus electricus, UniProt O42275); assay: biochemical; type: biochemical; conditions: for inhibition at 200 µM: 200 µM compound; for IC50: means ± SD of three experiments
T2 construct: purchased Sigma-Aldrich, Hamburg, Germany
T2 sequence (O42275 24-633): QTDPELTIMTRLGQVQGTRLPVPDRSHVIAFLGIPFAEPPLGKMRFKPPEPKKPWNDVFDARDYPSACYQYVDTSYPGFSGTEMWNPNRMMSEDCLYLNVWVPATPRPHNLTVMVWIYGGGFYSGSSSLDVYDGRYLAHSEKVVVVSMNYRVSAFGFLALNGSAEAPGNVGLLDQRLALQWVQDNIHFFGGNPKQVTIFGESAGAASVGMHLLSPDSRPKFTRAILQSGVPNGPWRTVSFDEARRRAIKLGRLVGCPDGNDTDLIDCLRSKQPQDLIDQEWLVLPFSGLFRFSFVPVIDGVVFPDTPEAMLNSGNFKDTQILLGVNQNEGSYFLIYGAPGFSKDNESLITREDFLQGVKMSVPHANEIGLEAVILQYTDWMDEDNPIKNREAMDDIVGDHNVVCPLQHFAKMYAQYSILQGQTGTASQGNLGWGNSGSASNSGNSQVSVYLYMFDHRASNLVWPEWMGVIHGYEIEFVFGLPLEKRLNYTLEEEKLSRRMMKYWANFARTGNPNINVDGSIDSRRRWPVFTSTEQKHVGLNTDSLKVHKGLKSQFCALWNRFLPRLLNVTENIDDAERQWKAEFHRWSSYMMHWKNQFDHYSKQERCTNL
Protocol: as §2

[5] = target: T3, recombinant human MAO-A (hMAOA) (Homo sapiens, UniProt P21397); assay: MAO-A inhibition, fluorometric Amplex UltraRed assay; type: biochemical; conditions: for inhibition at 1 µM: 1 µM compound, read-out: Inhibition Activity 1 µM MAO-A; for IC50: means ± SD of three experiments, read-out: MAO-A IC50
T3 sequence (P21397 1-527): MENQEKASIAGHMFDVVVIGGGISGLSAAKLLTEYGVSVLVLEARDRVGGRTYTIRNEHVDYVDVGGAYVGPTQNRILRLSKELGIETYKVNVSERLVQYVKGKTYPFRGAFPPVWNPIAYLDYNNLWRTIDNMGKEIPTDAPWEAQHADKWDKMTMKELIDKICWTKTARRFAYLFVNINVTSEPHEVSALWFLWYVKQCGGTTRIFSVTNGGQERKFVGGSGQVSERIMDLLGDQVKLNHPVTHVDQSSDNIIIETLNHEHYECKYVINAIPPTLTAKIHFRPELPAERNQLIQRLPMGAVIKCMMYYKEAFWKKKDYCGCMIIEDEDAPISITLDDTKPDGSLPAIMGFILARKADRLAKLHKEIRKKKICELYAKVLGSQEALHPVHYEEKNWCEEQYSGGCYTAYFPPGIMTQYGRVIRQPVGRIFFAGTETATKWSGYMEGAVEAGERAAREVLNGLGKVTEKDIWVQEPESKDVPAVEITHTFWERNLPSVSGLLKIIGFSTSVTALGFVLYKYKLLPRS
Protocol: (§3) Monoamine oxidase (MAO) activity for both recombinant human MAO-A (hMAOA) and MAO-B (hMAOB) was assessed using a fluorometric assay based on the Amplex® UltraRed reagent. This method, originally reported by Bautista-Aguilera et al. and later adapted with minor changes by Kasabova-Angelova et al., detects hydrogen peroxide or peroxidase activity present in enzymes or biological samples. In this assay, Amplex® Red reacts in a 1:1 molar ratio with hydrogen peroxide in the presence of peroxidase, producing the red-fluorescent compound resorufin. Due to resorufin’s strong extinction coefficient (58,000 ± 5000 cm^−1·M^−1), measurements could be accurately taken using either fluorometric or spectrophotometric methods. […] The control conditions included the use of purified hMAOA or hMAOB in reaction buffer, enzyme solutions with hydrogen peroxide, and buffer alone. All the test compounds were initially prepared at a 1 µM final concentration. These compounds were combined with either hMAOA or hMAOB and loaded into a 96-well plate (with eight replicates per test compound), followed by incubation for 30 min at 37 °C in the dark. Subsequently, a 50 µL detection mix was added to each well. This mix contained Amplex® Red, horseradish peroxidase (HRP), and tyramine substrate, all prepared in a reaction buffer. As this enzymatic reaction proceeded continuously, the fluorescence signal was recorded every 30 min (at 0, 30, 60, 90, 120, and 150 min) to track enzymatic kinetics.

[6] = target: T4, recombinant human MAO-B (hMAOB) (Homo sapiens, UniProt P27338); assay: biochemical; type: biochemical; conditions: for inhibition at 1 µM: 1 µM compound; for IC50 / MAO-B IC50: means ± SD of three experiments
T4 sequence (P27338 1-520): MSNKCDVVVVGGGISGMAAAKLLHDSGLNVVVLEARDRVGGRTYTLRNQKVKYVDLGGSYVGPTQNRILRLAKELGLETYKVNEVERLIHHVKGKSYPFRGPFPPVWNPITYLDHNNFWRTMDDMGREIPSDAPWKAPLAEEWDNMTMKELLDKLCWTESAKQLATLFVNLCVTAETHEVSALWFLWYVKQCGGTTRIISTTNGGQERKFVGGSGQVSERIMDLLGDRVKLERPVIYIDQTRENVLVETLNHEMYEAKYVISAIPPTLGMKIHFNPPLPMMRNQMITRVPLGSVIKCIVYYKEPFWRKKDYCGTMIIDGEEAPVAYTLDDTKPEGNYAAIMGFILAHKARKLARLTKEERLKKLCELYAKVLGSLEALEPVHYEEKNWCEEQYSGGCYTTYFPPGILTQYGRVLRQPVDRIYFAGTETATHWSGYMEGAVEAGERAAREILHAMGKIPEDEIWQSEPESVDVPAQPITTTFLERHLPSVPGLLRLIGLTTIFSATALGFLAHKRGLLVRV
Protocol: as §3

Row | Compound | decrease of GSH level by the toxic agent alone [1] [%] | decrease of synaptosomal viability by the toxic agent alone [1] [%] | decrease of GSH level by the toxic agent alone [2] [%] | increase of MDA production by the toxic agent alone [2] [%] | IC50 [3] [µM] | inhibition at 200 µM [3] [%] | inhibition at 200 µM [4] [%] | IC50 [4] [µM] | inhibition at 1 µM [5] [%] | IC50 [5] [µM] | inhibition at 1 µM [6] [%] | IC50 [6] [µM] | MAO-B IC50 [6]
1 | NCCc1cc(O)c(O)cc1O [Compound 6-OHDA, 6-hydroxydopamine, reference compound] | 50 | 50 |  |  |  |  |  |  |  |  |  |  | 
2 | CC(C)(C)OO [t-BuOOH, tert-butyl hydroperoxide, reference compound] |  |  | 50 | 150 |  |  |  |  |  |  |  |  | 
3 | Cc1ccc(C)n1CCc1ccccc1 [EM-DC-7, 2,5-dimethyl-1-(2-phenylethyl)-1H-pyrrole] |  |  |  |  | > 200 | 43.9 ± 1.7 | 11.9 ± 2.33 | > 200 | 80 ± 7.2 | 0.51 ± 0.1 | 75 ± 7.1 | 0.49 ± 0.1 | submicromolar range
4 | Cc1ccc(C)n1CC(O)c1ccc(O)cc1 (stereo not shown) [EM-DC-10, 4-[2-(2,5-dimethyl-1H-pyrrol-1-yl)-1-hydroxyethyl]phenol] |  |  |  |  | 11.3 ± 0.87 | 87.2 ± 1.6 | 60.4 ± 1.05 | 148 ± 5.91 | 99 ± 6.8 | > 100 | 99 ± 7.1 | > 100 | 
5 | Cc1ccc(C)n1-c1ccc(C(=O)O)cc1O [EM-DC-17, 4-(2,5-dimethyl-1H-pyrrol-1-yl)-3-hydroxybenzoic acid] |  |  |  |  | > 200 | 3.85 ± 2.99 | 0 | > 200 | 99 ± 6.6 | > 100 | 99 ± 7.1 | > 100 | 
6 | CCC(C)Cn1c(C)ccc1C (stereo not shown) [EM-DC-26, 2,5-dimethyl-1-(2-methylbutyl)-1H-pyrrole] |  |  |  |  | 106.5 ± 0.7 | 68.2 ± 1.6 | 12.8 ± 3.54 | > 200 | 97 ± 7.1 | > 100 | 97 ± 7.1 | > 100 | 
7 | Cc1ccc(C)n1-c1ccc2c(c1)OCO2 [EM-DC-6, 1-(2H-1,3-benzodioxol-5-yl)-2,5-dimethyl-1H-pyrrole] |  |  |  |  | > 200 | 36.3 ± 3.54 | 65 ± 1.14 | 128 ± 1.87 | 97 ± 7.1 | > 100 | 98 ± 7.1 | > 100 | 
8 | Cc1cc(-n2c(C)ccc2C)c2ccccc2n1 [EM-DC-13, 4-(2,5-dimethyl-1H-pyrrol-1-yl)-2-methylquinoline] |  |  |  |  | 10.5 ± 0.17 | 83.81 ± 0.67 | 91.2 ± 1.22 | 3.81 ± 0.26 | 80 ± 7.1 | 0.38 ± 0.1 | 80 ± 7.1 | 0.41 ± 0.1 | 
9 | Cc1ccc(C)n1-c1ccncc1 [EM-DC-12, 4-(2,5-dimethyl-1H-pyrrol-1-yl)pyridine] |  |  |  |  | 72.8 ± 2.53 | 73.2 ± 1.8 | 65.7 ± 3.25 | 103 ± 5.85 | 70 ± 6.9 | 0.49 ± 0.1 | 70 ± 7.1 | 0.51 ± 0.1 | submicromolar range
10 | Cc1ccc(C)n1-c1ccc(Br)cc1 [EM-DC-4, 1-(4-bromophenyl)-2,5-dimethyl-1H-pyrrole] |  |  |  |  | > 200 | 0 | 1.4 ± 0.38 | > 200 | 60 ± 6.8 | 0.32 ± 0.1 | 98 ± 7.1 | > 100 | 
